Holding throughout (assay): NCI-60 cell line screen, 48 h
Assay [1] deals with 786-0.
In assay [2] the test system is A549.
In assay [3] the test system is DU-145.
Assay [4] has as its system HCT-116.
For assay [5], the system named is HOP-92.
Assay [6] has as its system IGROV-1.
In assay [7] the test system is M14.
In assay [8] the test system is MCF7.
Assay [9] concerns MDA-MB-435.
The subject of assay [10] is MOLT-4.
In assay [11] the test system is NCI/ADR-RES.
The subject of assay [12] is OVCAR-5.
For assay [13], the system named is OVCAR-8.
Assay [14] relates to PC-3.
Assay [15] relates to RPMI-8226.
Assay [16] has as its system SF-268.
Assay [17] relates to SF-295.
The subject of assay [18] is U-251.
Assay [19] relates to UO-31.

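Each compound was tested at five concentrations against cells in 96-well plates for 48 hours. GI50 = concentration required for 50% inhibition of growth.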 Active and inactive are the calls of the source. Cut-off read from the data, not from the text of the source: active = GI50 up to about 1.1 µM and inactive = higher.

For `COc1cc(/C=C2/C[C@H]3[C@@H]4CCC5=CC(=O)CC[C@]5(C)[C@H]4CC[C@]3(C)NC2=O)cc(OC)c1OC`, the GI50 is 48.6 µM (inactive) in assay [1]; 20.6 µM (inactive) in [2]; 21 µM (inactive) in assay [3]; 26.2 µM (inactive) in assay [4]; 11.2 µM (inactive) in assay [5]; 24.7 µM (inactive) in [6]. For the same molecule, the GI50 in assay [7] is 27.4 µM (inactive); in assay [8], 17.3 µM (inactive); in assay [9] it was 19.5 µM (inactive); in [10], 10.2 µM (inactive); in assay [11], 25.1 µM (inactive); in assay [12] it was 13.1 µM (inactive). Further, the GI50 in [13] is 23.7 µM (inactive); in assay [14], 21.1 µM (inactive); in assay [15] it was 9.64 µM (inactive); in [16], 26.3 µM (inactive); in assay [17], 20 µM (inactive); in assay [18] it was 19.5 µM (inactive). In assay [19], the GI50 was 0.9 µM (active).

Consider `CC1=C(C(=O)NCC(C)O)CC(C(=O)NCC(C)O)=C(C)N1` (stereo not drawn), for which the GI50 in assay [1], in assay [2], in assay [3], in assay [4], in assay [5] and in assay [6] was > 100 µM (inactive) each time. Moreover, the GI50 in assay [7], in assay [8], in assay [9], in assay [10], in assay [11] and in [12] was > 100 µM (inactive) throughout. The GI50 in assay [13], in assay [14], in assay [15], in assay [16], in assay [17] and in assay [18] was > 100 µM (inactive) throughout. Besides, the GI50 in assay [19] was > 100 µM (inactive).

For `Clc1c2ncccc2cc2nn[nH]c12`, the GI50 in assay [1] is > 100 µM (inactive); in assay [2], > 100 µM (inactive); in [3] it was > 100 µM (inactive); in assay [4], > 100 µM (inactive); in [5] it was 54 µM (inactive); in assay [6], 33 µM (inactive). In addition, the GI50 in [7] was > 100 µM (inactive); in [8], > 100 µM (inactive); in [9], > 100 µM (inactive); in [10], 15.8 µM (inactive); in [11], > 100 µM (inactive); in assay [12] it was 74.5 µM (inactive). Further, the GI50 in [13] was > 100 µM (inactive); in assay [14] it was > 100 µM (inactive); in [15] it was > 100 µM (inactive); in assay [16], > 100 µM (inactive); in assay [17], 41 µM (inactive); in assay [18], > 100 µM (inactive). For the same molecule, in assay [19], the GI50 is 82.6 µM (inactive).

For `COc1ccc2c(c1)/C(=C\c1c(Cl)nc3n1CCS3)C(=O)N2`, the GI50 in assay [1] is 7.83 µM (inactive); in assay [2] it was 5.62 µM (inactive); in assay [3], 11.8 µM (inactive); in assay [4], 3.73 µM (inactive); in assay [5] it was 46.5 µM (inactive); in assay [6], 7.28 µM (inactive). The GI50 is 7.5 µM (inactive) in [7]; 4.42 µM (inactive) in assay [8]; 1.29 µM (inactive) in assay [9]; 4.01 µM (inactive) in [10]; 4.48 µM (inactive) in assay [11]; 13.5 µM (inactive) in assay [12]. Also, the GI50 in [13] was 19.7 µM (inactive); in assay [14], 3.36 µM (inactive); in assay [15] it was 4.03 µM (inactive); in assay [16], 13.8 µM (inactive); in [17], 3.72 µM (inactive); in assay [18], 5.37 µM (inactive). Besides, the GI50 in assay [19] is 5.86 µM (inactive).

Regarding `O=C(O)CCc1nc2c(n1Cc1ccccc1)C(=O)c1ccccc1C2=O`, the GI50 in assay [1] is > 100 µM (inactive); in assay [2] it was 50.4 µM (inactive); in assay [3] it was > 100 µM (inactive); in assay [4] it was 36.3 µM (inactive); in [5] it was 5.45 µM (inactive); in assay [6] it was 70.3 µM (inactive). For the same molecule, the GI50 in assay [7] is 21.4 µM (inactive); in assay [8], 43.8 µM (inactive); in assay [9], 19.2 µM (inactive); in assay [10] it was 68.9 µM (inactive); in [11], 59.6 µM (inactive); in assay [12] it was > 100 µM (inactive). In addition, the GI50 in assay [13] is 49.4 µM (inactive); in [14] it was 72.9 µM (inactive); in assay [15], 39 µM (inactive); in [16] it was 60.5 µM (inactive); in [17], 59.6 µM (inactive); in [18] it was 56 µM (inactive). Moreover, the GI50 in [19] is 30.8 µM (inactive).

Turning to `COc1ccc(Cc2cc(Cc3ccc(OC)cc3)cc(Cc3ccc(OC)cc3)c2)cc1`, the GI50 in assay [1], in [2], in assay [3], in assay [4], in assay [5] and in [6] was > 100 µM (inactive) each time. In addition, the GI50 in assay [7] is > 100 µM (inactive); in [8], > 100 µM (inactive); in assay [9], 13.6 µM (inactive); in assay [10], > 100 µM (inactive); in [11] it was > 100 µM (inactive); in assay [12], > 100 µM (inactive). The GI50 in [13], in [14], in [15], in assay [16], in [17] and in assay [18] was > 100 µM (inactive) in each case. The GI50 in assay [19] is > 100 µM (inactive).

Turning to `Cc1cc2c(c3oc(C4(C)OC4C4OC4C)cc(=O)c13)C(=O)c1c(O)c(C3CC(C)(N(C)C)C(O)C(C)O3)cc(C3CC(N(C)C)C(O)C(C)O3)c1C2=O` (stereo not drawn), the GI50 in [1] is 0.000129 µM (active); in assay [2] it was 0.0025 µM (active); in [3] it was 6.85e-05 µM (active); in assay [4] it was 1.54e-05 µM (active); in assay [5], 0.000733 µM (active); in [6], 0.000951 µM (active). For the same molecule, the GI50 in [7] was 8.26e-05 µM (active); in assay [8], 2.49e-05 µM (active); in [9], 9.23e-05 µM (active); in assay [10], 0.0025 µM (active); in [11], 0.000118 µM (active); in [12], 8.95e-05 µM (active). Moreover, the GI50 in assay [13] was 0.0025 µM (active); in assay [14], 6.52e-05 µM (active); in [15], 0.000271 µM (active); in [16] it was 2.5e-05 µM (active); in assay [17], 4.68e-05 µM (active); in [18], 4.1e-05 µM (active). The GI50 in assay [19] is 0.000557 µM (active).

Values taken from ChEMBL document CHEMBL1201862, “PubChem BioAssay data set” (2004).
